Laboratory results from patent publication US11712456B2, “Hemp extract for treatment of pain in animals” (Portland Technology Holdings LLC, priority 2018, dated 2023).
“And” between values parts separate entries of the source, which are not always exact repeats. Equal values may be shown once.

Assay: Feline safety study: cannabidiol quantification in serum and pharmacokinetics (LC-MS/MS)
Format: in vivo
Details: individual cats; oral administration of 2/mg/kg cannabidiol in capsule form
Procedure: On the first day of dosing, blood was collected for a PK analysis from 6 of the 8 cats. The most cooperative cats were selected for the PK analysis. […] Samples were placed into a red top clotting tube with no serum separator. […] The harvested serum was placed in cyrovials stored at −70° C. Each tube was labeled with the cat id, date of collection and collection time point. Samples were shipped overnight on dry ice to the Proteomics & Metabolomics Facility at Colorado State University.
Aliquots of feline serum were delivered to the facility on dry ice and stored at −80° C. upon receipt. […] 200 μL of cold (−20 C) 100% Acetonitrile (spiked with 60 ng/mL of d3-CBD) was added to each sample and vortexed at room temperature for 5 minutes. 200 μL of water was added and vortexed for an additional 5 minutes. 1 ml of 100% hexane was then added to each sample and vortexed for a final 5 minutes. […] The upper hexane layer was transferred to new-labeled glass vials (˜900 uL per sample), carefully avoiding the middle and lower layers. Samples were concentrated to dryness under N2 and resuspended in 60 μL of 100% acetonitrile.
An 8 point standard curve of CBD was generated in matrix background using a blank serum. Concentrations ranged from 0 ng/mL 1000 ng/mL (3.2× dilution series). 50 uL of each spiked serum sample was extracted as above.
LC-MS/MS was performed on a Waters Acquity M-Class UPLC coupled to a Waters Xevo TQ-S triple quadrupole mass spectrometer. […] Flow rate was 3.0 μL/min and injection volume was 2.0 μL. Samples were held at 6° C. in the autosampler, and the column was operated at 70° C. The MS was operated in selected reaction monitoring (SRM) mode, where a parent ion is selected by the first quadrupole, fragmented in the collision cell, then a fragment ion selected for by the third quadrupole. Product ions, collision energies, and cone voltages were optimized for each analyte by direct injection of individual synthetic standards. Inter-channel delay was set to 3 ms. The MS was operated in positive ionization mode with the capillary voltage set to 3.6 kV. […]
All Raw data files were imported into the Skyline open source software package. […] Peak areas were extracted for target compounds detected in biological samples and normalized to the peak area of the appropriate internal standard in each sample using in-house R Script (TQS-tools). CBD concentrations were calculated in nanograms per milliliter of extract (0.06 mL) and then back calculated to nanograms per mL of serum (0.05 mL of serum). […]
LOD are calculated based on the standard deviation of the response (Sy) of the 0 point calibration standard (i.e. 0 ng/mL CBD as an estimate on noise) and the slope of the calibration curve (S) at levels approximating the LOD according to the formula: LOD=3*(Sy/S). […]

C=C(C)[C@@H]1CCC(C)=C[C@H]1c1c(O)cc(CCCCC)cc1O [cannabidiol]
AUC 0-t = Area under the curve (0 time to time of last collection [24 hr]): 265.0 ng·h/mL and 54.2 ng·h/mL and 42.4 ng·h/mL and 212.2 ng·h/mL and 125.0 ng·h/mL and 194.1 ng·h/mL and 134.2 ng·h/mL and 60.2 ng·h/mL | Cmax = Maximum concentration: 8.8 ng/mL and 12.1 ng/mL and 75.3 ng/mL and 40.5 ng/mL and 53.3 ng/mL and 21.2 ng/mL | Tmax = Time of maximum concentration: 4 h and 1 h | T½ el = Half-life of elimination: 2.3 h and 1.3 h and 1.7 h
